Data as given in patent publication US9273057B2 (Bristol-Myers Squibb Company, priority 2012, dated 2016).
Structures can show the parent of a compound that is named as a salt.

Biological target: CK2A1 (CK2α/β) (Homo sapiens, UniProt P68400)
Test: CK2 kinase assay, CK2A1 (CK2α/β)
Type: biochemical
Details: Table A; read-out: CK2A1 (CK2α/β) (IC50)
Protocol: For example, in vitro protein kinase assays may be conducted with a relevant purified protein kinase and an appropriate synthetic substrate to determine the inhibitory activity of the compounds. […] Reaction mixtures were incubated at 30° C. for 1 hour, and reaction products were captured by binding to phosphocellulose (P81) filter plates. Incorporation of radioactive phosphate into the peptide substrate was determined by liquid scintillation counting.
The inhibitory activity of the instant compounds may also be measured by recombinant CK2 holoenzyme kinase assays. The assays were performed in U-bottom 384-well plates. […] The reaction was initiated by the combination of bacterially expressed, CK2 α/β or CK2 holoenzyme with substrates and test compounds. The reaction was incubated at room temperature for 60 minutes and terminated by adding 30 μl of 35 mM EDTA to each sample. The reaction mixture was analyzed on the Caliper LABCHIP® 3000 (Caliper, Hopkinton, Mass.) by electrophoretic separation of the fluorescent substrate and phosphorylated product. […] Compounds were dissolved at 10 mM in dimethylsulfoxide (DMSO) and evaluated at eleven concentrations. IC50 values were derived by non-linear regression analysis.

Sequence of CK2A1 (CK2α/β) (P68400 whole entry, species assumed): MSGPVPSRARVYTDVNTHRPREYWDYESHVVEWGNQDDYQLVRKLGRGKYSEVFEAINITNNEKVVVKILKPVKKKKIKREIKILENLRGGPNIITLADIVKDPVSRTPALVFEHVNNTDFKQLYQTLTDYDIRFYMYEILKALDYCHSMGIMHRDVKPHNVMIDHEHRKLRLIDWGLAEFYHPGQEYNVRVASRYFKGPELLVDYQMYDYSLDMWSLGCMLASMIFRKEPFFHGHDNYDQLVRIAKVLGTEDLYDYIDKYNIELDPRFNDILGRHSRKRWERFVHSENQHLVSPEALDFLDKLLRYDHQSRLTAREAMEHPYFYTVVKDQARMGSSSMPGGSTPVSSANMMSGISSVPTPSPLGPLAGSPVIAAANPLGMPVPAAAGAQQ
Sequence of CK2A1 (CK2α/β) (P67870 whole entry partner, species assumed): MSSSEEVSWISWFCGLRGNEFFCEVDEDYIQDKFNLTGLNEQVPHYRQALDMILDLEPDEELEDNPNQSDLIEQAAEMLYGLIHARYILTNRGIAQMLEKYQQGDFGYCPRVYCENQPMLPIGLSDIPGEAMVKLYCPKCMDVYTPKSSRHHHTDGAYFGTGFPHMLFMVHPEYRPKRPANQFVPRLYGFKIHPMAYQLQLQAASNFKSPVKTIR

Row | Compound | IC50 [nM]
1 | C[C@H](O)CN1CC(N2CCC(c3cc(C#N)cc(Nc4nc(NC5CC5)c5ncc(C#N)n5n4)c3Cl)CC2)C1 [Example 322, 2-((2-chloro-5-cyano-3-(1-(1-((2S)-2-hydroxypropyl)-3-azetidinyl)-4-piperidinyl)phenyl)amino)-4-(cyclopropylamino)imidazo [2,1-f][1,2,4]triazine-7-carbonitrile] | 1.78
2 | CN1CC2(CCN(c3cc(C#N)cc(Nc4nc(NC5CC5)c5ncc(C#N)n5n4)c3Cl)CC2)C1 [Example 798, 2-((2-chloro-5-cyano-3-(2-methyl-2,7-diazaspiro[3.5]nonan-7-yl)phenyl)amino)-4-(cyclopropylamino)imidazo[2,1-f][1,2,4]triazine-7-carbonitrile] | 1.8
3 | N#Cc1cnc2c(NC3CC3)nc(Nc3cc(C(F)F)cc(N4CCN(C5CCOCC5)CC4)c3Cl)nn12 [Example 247, 2-((2-chloro-5-(difluoromethyl)-3-(4-(tetrahydro-2H-pyran-4-yl)-1-piperazinyl)phenyl)amino)-4-(cyclopropylamino)imidazo[2,1-f][1,2,4]triazine-7-carbonitrile] | 1.74
4 | CCNc1nc(Nc2cc(NC(=O)OC)cc(N3CCN(C)CC3)c2F)nn2c(C#N)cnc12 [Example 386, methyl (3-((7-cyano-4-(ethylamino)imidazo[2,1-f][1,2,4]triazin-2-yl)amino)-4-fluoro-5-(4-methylpiperazin-1-yl)phenyl)carbamate] | 5.79
5 | CCOC(=O)C1CCN(c2cc(C(F)F)cc(Nc3nc(NC4CC4)c4ncc(C#N)n4n3)c2Cl)CC1 [Example 544, ethyl 1-(2-chloro-3-((7-cyano-4-(cyclopropylamino)imidazo[2,1-f][1,2,4]triazin-2-yl)amino)-5-(difluoromethyl)phenyl)piperidine-4-carboxylate] | 28.2
6 | CCNc1nc(Nc2cc(C#N)cc(N3CC[C@@H](NC(=O)OC)[C@H](OC(=O)[C@@H](N)CCCNC(=N)N)C3)c2Cl)nn2c(C#N)cnc12 [Example 808, (S)-(3R,4R)-1-(2-chloro-5-cyano-3-((7-cyano-4-(ethylamino)imidazo[2,1-f][1,2,4]triazin-2-yl)amino)phenyl)-4-((methoxycarbonyl)amino)piperidin-3-yl 2-amino-5-guanidinopentanoate trihydrochloride] | 0.44
7 | CN(CCN)c1cc(C#N)cc(Nc2nc(NC3CC3)c3ncc(C#N)n3n2)c1Cl [Example 50] | 0.63
8 | N#Cc1cc(Nc2nc(NC3CC3)c3ncc(C#N)n3n2)c(Cl)c(N2CC(N3CCNCC3)C2)c1 [Example 155, 2-((2-chloro-5-cyano-3-(3-(1-piperazinyl)-1-azetidinyl)phenyl)amino)-4-(cyclopropylamino)imidazo [2,1-f][1,2,4]triazine-7-carbonitrile] | 0.42
9 | CC(C)(O)CN1CC(N2CCC(c3cc(C#N)cc(Nc4nc(NC5CC5)c5ncc(C#N)n5n4)c3Cl)CC2)C1 [Example 324, 2-((2-chloro-5-cyano-3-(1-(1-(2-hydroxy-2-methylpropyl)-3-azetidinyl)-4-piperidinyl)phenyl)amino)-4-(cyclopropylamino)imidazo [2,1-f][1,2,4]triazine-7-carbonitrile] | 0.78
10 | CC(C)(O)CN[C@@H]1CCCN(c2cc(C#N)cc(Nc3nc(NC4CC4)c4ncc(C#N)n4n3)c2Cl)C1 [Example 43, 2-((2-chloro-5-cyano-3-((3R)-3-((2-hydroxy-2-methylpropyl)amino)-1-piperidinyl)phenyl)amino)-4-(cyclopropylamino)imidazo [2,1-f][1,2,4]triazine-7-carbonitrile] | 1.82
11 | N#Cc1cc(Nc2nc(NC3CC3)c3ncc(C#N)n3n2)c(Cl)c(N2CCN3C[C@@H](F)C[C@H]3C2)c1 (racemic) [Example 437, (+/−)-2-((2-chloro-5-cyano-3-((7R,8aR)-7-fluorohexahydropyrrolo[1,2-a]pyrazin-2(1H)-yl)phenyl)amino)-4-(cyclopropylamino)imidazo[2,1-f][1,2,4]triazine-7-carbonitrile] | 0.83
12 | CCNc1nc(Nc2cc(C#N)cc(N3CCN(C4CCOC4)CC3)c2Cl)nn2c(C#N)cnc12 (racemic) [Example 103, (+/−) 2-((2-chloro-5-cyano-3-(4-(tetrahydro-3-furanyl)-1-piperazinyl)phenyl)amino)-4-(ethylamino)imidazo [2,1-f][1,2,4]triazine-7-carbonitrile] | 0.83
13 | CCNc1nc(Nc2cc(C#N)cc(N3CC[C@@H](NC(=O)OC)[C@H](OP(=O)(O)O)C3)c2Cl)nn2c(C#N)cnc12 [Example 337, methyl ((3R,4R)-1-(2-chloro-5-cyano-3-((7-cyano-4-(ethylamino)imidazo[2,1-f][1,2,4]triazin-2-yl)amino)phenyl)-3-(phosphonooxy)piperidin-4-yl)carbamate] | 16
14 | CCNc1nc(Nc2cc(C#N)cc(N3CC[C@@H](NC(=O)OC)[C@H](OC(=O)[C@@H](N)C(C)C)C3)c2Cl)nn2c(C#N)cnc12 [Example 346, (S)-(3R,4R)-1-(2-chloro-5-cyano-3-((7-cyano-4-(ethylamino)imidazo[2,1-f][1,2,4]triazin-2-yl)amino)phenyl)-4-((methoxycarbonyl)amino)piperidin-3-yl 2-amino-3-methylbutanoate] | 2.03
15 | CC[C@H]1CN(c2cc(C#N)cc(Nc3nc(NC4CC4)c4ncc(C#N)n4n3)c2Cl)C[C@H]1NC(=O)OC (racemic) [Example 292, (+/−) methyl ((3S,4S)-1-(2-chloro-5-cyano-3-((7-cyano-4-(cyclopropylamino)imidazo[2,1-f][1,2,4]triazin-2-yl)amino)phenyl)-4-ethyl-3-pyrrolidinyl)carbamate] | 2
16 | N#Cc1cc(Nc2nc(NC3CC3)c3ncc(C#N)n3n2)c(Cl)c(N2CCN(C(=O)C3CCCO3)CC2)c1 (racemic) [Example 84, (+/−) 2-((2-chloro-5-cyano-3-(4-(tetrahydro-2-furanylcarbonyl)-1-piperazinyl)phenyl)amino)-4-(cyclopropylamino) imidazo[2,1-f][1,2,4] triazine-7-carbonitrile] | 0.5
17 | N#Cc1cc(Nc2nc(NC3CC3)c3ncc(C#N)n3n2)c(Cl)c(N2CCN(C(=O)CCn3ccnc3)CC2)c1 [Example 98] | 0.36
18 | N#Cc1cc(Nc2nc(NC3CC3)c3ncc(C#N)n3n2)c(Cl)c(N2CCC3(CC2)CN(CC(N)=O)C3)c1 [Example 800, 2-(7-(2-chloro-5-cyano-3-((7-cyano-4-(cyclopropylamino)imidazo[2,1-f][1,2,4]triazin-2-yl)amino)phenyl)-2,7-diazaspiro[3.5]nonan-2-yl)acetamide] | 2.14
19 | COC(=O)N[C@H]1C[C@H](O)CN(c2cc(C#N)cc(Nc3nc(NC4CC4)c4ncc(C#N)n4n3)c2Cl)C1 (racemic) [Example 17, (+/−) methyl ((3S,5S)-1-(2-chloro-5-cyano-3-((7-cyano-4-(cyclopropylamino)imidazo [2,1-f][1,2,4]triazin-2-yl)amino)phenyl)-5-hydroxy-3-piperidinyl)carbamate] | 0.59
20 | COC(=O)N[C@@H]1C[C@@H]2CN(c3cc(C#N)cc(Nc4nc(NC5CC5)c5ncc(C#N)n5n4)c3Cl)C[C@@H]2C1 [Example 13, (+/−) methyl ((3aR,5r,6aS)-2-(2-chloro-5-cyano-3-((7-cyano-4-(cyclopropylamino)imidazo [2,1-f][1,2,4]triazin-2-yl)amino)phenyl)octahydro-cyclopenta[c]pyrrol-5-yl)carbamate] | 1.7
21 | COC(=O)NCC1CN(c2cc(C#N)cc(Nc3nc(NC4CC4)c4ncc(C#N)n4n3)c2Cl)CCO1 (stereo not drawn) [Example 710, methyl N-{[4-(2-chloro-5-cyano-3-{[7-cyano-4-(cyclopropylamino)imidazo[2,1-f][1,2,4]triazin-2-yl]amino}phenyl)morpholin-2-yl]methyl}carbamate] | 0.75
22 | N#Cc1cc(Nc2nc(NC3CC3)c3ncc(C#N)n3n2)c(OC[C@@H]2COCCN2)cc1F [Example 424, (S)-2-((5-cyano-4-fluoro-2-(morpholin-3-ylmethoxy)phenyl)amino)-4-(cyclopropylamino)imidazo[2,1-f][1,2,4]triazine-7-carbonitrile] | 5.12
23 | CCNc1nc(Nc2cc(C#N)cc(N3CC[C@@H](NC(=O)OC)[C@H](N[C@H](C)C(N)=O)C3)c2Cl)nn2c(C#N)cnc12 [Example 758, methl N-[(3R,4R)-3-{[(1S)-1-carbamoylethyl]amino}-1-(2-chloro-5-cyano-3-{[7-cyano-4-(ethylamino)imidazo[2,1-f][1,2,4]triazin-2-yl]amino}phenyl)piperidin-4-yl]carbamate] | 1.4
24 | CC(CN1CC(O)C1)c1cc(C#N)cc(Nc2nc(NC3CC3)c3ncc(C#N)n3n2)c1Cl (stereo not drawn) [Example 573, 2-((2-chloro-5-cyano-3-(1-(3-hydroxyazetidin-1-yl)propan-2-yl)phenyl)amino)-4-(cyclopropylamino)imidazo[2,1-f][1,2,4]triazine-7-carbonitrile] | 1.3
25 | CCNC(=O)OCC1CN(c2cc(C#N)cc(Nc3nc(NC4CC4)c4ncc(C#N)n4n3)c2Cl)CCO1 (racemic) [Example 699, (+/−)-(4-(2-chloro-5-cyano-3-((7-cyano-4-(cyclopropylamino)imidazo[2,1-f][1,2,4]triazin-2-yl)amino)phenyl)morpholin-2-yl)methyl ethylcarbamate] | 0.97
26 | CC(C)(O)CN1CCC2CN(c3cc(C#N)cc(Nc4nc(NC5CC5)c5ncc(C#N)n5n4)c3Cl)CCC21 (stereo not drawn) [Example 450, 2-((2-chloro-5-cyano-3-(1-(2-hydroxy-2-methylpropyl)hexahydro-1H-pyrrolo[3,2-c]pyridin-5(6H)-yl)phenyl)amino)-4-(cyclopropylamino)imidazo[2,1-f][1,2,4]triazine-7-carbonitrile] | 1.5
27 | CS(=O)(=O)CC(=O)N1CC(N2CCN(c3cc(C#N)cc(Nc4nc(NC5CC5)c5ncc(C#N)n5n4)c3Cl)CC2)C1 [Example 486, 2-[(2-chloro-5-cyano-3-{4-[1-(2-methanesulfonylacetyl)azetidin-3-yl]piperazin-1-yl}phenyl)amino]-4-(cyclopropylamino)imidazo[2,1-f][1,2,4]triazine-7-carbonitrile] | 1.61
